PubChem BioAssay AID1845212 (Molecular Pharmacology Branch, DTP, NCI, 2023)

Test system: NCI-H719 tumor spheroids, viability
Experiment: Anticancer human tumor NCI-H719 cell line growth inhibition;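 also: spheroids exposed to compounds for seven days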;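 as to viability, T/C: percent viability relative to DMSO vehicle control as 100%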
Settings: spheroids with HUVEC and MSC; for IC50: curve of first compound; for viability, T/C: stronger effect = lower value
In short: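 Single agents and combinations were tested on spheroids built from tumor cells plus HUVEC and hMSC, at half-log dilutions starting at or near clinical Cmax, else 10 microM; final DMSO 0.25% (v/v).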

[1] = second compound 30 pM, first compound 0.00949 µM
[2] = second compound 30 pM, first compound 0.03 µM
[3] = second compound 30 pM, first compound 0.0949 µM
[4] = second compound 30 pM, first compound 0.3 µM
[5] = second compound 30 pM, first compound 0.949 µM
[6] = second compound 30 pM, first compound 3 µM
[7] = second compound 94.9 pM, first compound 0.00949 µM
[8] = second compound 94.9 pM, first compound 0.03 µM
[9] = second compound 94.9 pM, first compound 0.0949 µM
[10] = second compound 94.9 pM, first compound 0.3 µM
[11] = second compound 94.9 pM, first compound 0.949 µM
[12] = second compound 94.9 pM, first compound 3 µM
[13] = second compound 0.0003 µM, first compound 0.00949 µM
[14] = second compound 0.0003 µM, first compound 0.03 µM
[15] = second compound 0.0003 µM, first compound 0.0949 µM
[16] = second compound 0.0003 µM, first compound 0.3 µM
[17] = second compound 0.0003 µM, first compound 0.949 µM
[18] = second compound 0.0003 µM, first compound 3 µM
[19] = second compound 0.000949 µM, first compound 0.00949 µM
[20] = second compound 0.000949 µM, first compound 0.03 µM
[21] = second compound 0.000949 µM, first compound 0.0949 µM
[22] = second compound 0.000949 µM, first compound 0.3 µM
[23] = second compound 0.000949 µM, first compound 0.949 µM
[24] = second compound 0.000949 µM, first compound 3 µM
[25] = second compound 0.003 µM, first compound 0.00949 µM
[26] = second compound 0.003 µM, first compound 0.03 µM
[27] = second compound 0.003 µM, first compound 0.0949 µM
[28] = second compound 0.003 µM, first compound 0.3 µM
[29] = second compound 0.003 µM, first compound 0.949 µM
[30] = second compound 0.003 µM, first compound 3 µM

Structure (SMILES)	IC50 (second compound 30 pM) [nM]	IC50 (second compound 94.9 pM) [nM]	IC50 (second compound 0.0003 µM) [nM]	IC50 (second compound 0.000949 µM) [nM]	IC50 (second compound 0.003 µM) [nM]	viability, T/C [1] [%]	viability, T/C [2] [%]	viability, T/C [3] [%]	viability, T/C [4] [%]	viability, T/C [5] [%]	viability, T/C [6] [%]	viability, T/C [7] [%]	viability, T/C [8] [%]	viability, T/C [9] [%]	viability, T/C [10] [%]	viability, T/C [11] [%]	viability, T/C [12] [%]	viability, T/C [13] [%]	viability, T/C [14] [%]	viability, T/C [15] [%]	further results
CNCc1ccc(-c2cc(-c3nc(-c4ccc(S(=O)(=O)C(C)C)cc4)cnc3N)on2)cc1 + COc1cc2c(cc1O)CCNC21CSC2c3c(OC(C)=O)c(C)c4c(c3C(COC1=O)N1C(O)C3Cc5cc(C)c(OC)c(O)c5C(C21)N3C)OCO4	84.2	< 9.49	< 9.49	< 9.49	< 9.49	79.9	86.5	45	15.5	10.5	1.88	34.3	29.2	14.2	8.3	9.95	0.36	8.48	25.4	8.28	viability, T/C [16]: 10.4%; viability, T/C [17]: 9.76%; viability, T/C [18]: 0.75%; viability, T/C [19]: 8.38%; viability, T/C [20]: 9.01%; viability, T/C [21]: 8.98%; viability, T/C [22]: 9.91%; viability, T/C [23]: 10.3%; viability, T/C [24]: 0.62%; viability, T/C [25]: 0.5%; viability, T/C [26]: 1.4%; viability, T/C [27]: 0.58%; viability, T/C [28]: 0.82%; viability, T/C [29]: 0.56%; viability, T/C [30]: 1.15%
Cc1sc2c(c1C)C(c1ccc(Cl)cc1)=NC(CC(=O)Nc1ccc(O)cc1)c1nnc(C)n1-2 (stereo not given) + COc1cc2c(cc1O)CCNC21CSC2c3c(OC(C)=O)c(C)c4c(c3C(COC1=O)N1C(O)C3Cc5cc(C)c(OC)c(O)c5C(C21)N3C)OCO4	139	< 9.49	< 9.49	< 9.49	< 9.49	77.2	90.2	69.2	11.1	3.27	2.11	34.7	33.6	35	7.23	3.48	1.41	8.51	6.28	6.64	viability, T/C [16]: 4.03%; viability, T/C [17]: 1.94%; viability, T/C [18]: 2.8%; viability, T/C [19]: 6.63%; viability, T/C [20]: 6.95%; viability, T/C [21]: 4.47%; viability, T/C [22]: 1.87%; viability, T/C [23]: 1.26%; viability, T/C [24]: 0.53%; viability, T/C [25]: 0.27%; viability, T/C [26]: 0.37%; viability, T/C [27]: 0.18%; viability, T/C [28]: 0.13%; viability, T/C [29]: 0.18%; viability, T/C [30]: 0.31%
Cn1ncnc1[C@H]1c2n[nH]c(=O)c3cc(F)cc(c23)N[C@@H]1c1ccc(F)cc1 + COc1cc2c(cc1O)CCNC21CSC2c3c(OC(C)=O)c(C)c4c(c3C(COC1=O)N1C(O)C3Cc5cc(C)c(OC)c(O)c5C(C21)N3C)OCO4	< 9.49	< 9.49	< 9.49	< 9.49	< 9.49	13.1	10.3	8.87	10.9	8.74	6.49	8.85	7.16	8.84	7.47	7.26	7.49	9.25	8.07	9.38	viability, T/C [16]: 10.2%; viability, T/C [17]: 7.28%; viability, T/C [18]: 7.06%; viability, T/C [19]: 7.36%; viability, T/C [20]: 7.49%; viability, T/C [21]: 7.37%; viability, T/C [22]: 6.85%; viability, T/C [23]: 5.96%; viability, T/C [24]: 4.33%; viability, T/C [25]: 0.57%; viability, T/C [26]: 0.36%; viability, T/C [27]: 0.96%; viability, T/C [28]: 0.6%; viability, T/C [29]: 0.86%; viability, T/C [30]: 0.88%
